The record followed here is patent US7432260B2, “Pyrimidine compounds” (Cyclacel Limted, priority 2002, dated 2008).

One assay addresses CDK1/cyclin B (Homo sapiens, UniProt P06493). In words: Kinase assay CDK1/cyclin B. The assay is classed as biochemical. The following applies: Table 2; read-out: Kinase Inhibition IC50 CDK1 cyclin B. As to the method: (§1) Kinase assays. […] This was achieved by measurement of incorporation of radioactive phosphate from ATP into appropriate polypeptide substrates. Recombinant protein kinases and kinase complexes were produced or obtained commercially. Assays were performed using 96-well plates and appropriate assay buffers (typically 25 mM β-glycerophosphate, 20 mM MOPS, 5 mM EGTA, 1 mM DTT, 1 mM […], pH 7.4), into which were added 2-4 μg of active enzyme with appropriate substrates. The reactions were initiated by addition of Mg/ATP mix (15 mM MgCl2+100 μM ATP with 30-50 kBq per well of [γ-^32P]-ATP) and mixtures incubated as required at 30° C. Reactions were stopped on ice, followed by filtration through p81 filterplates or GF/C filterplates (Whatman Polyfiltronics, Kent, UK). After washing 3 times with 75 mM aq orthophosphoric acid, plates were dried, scintillant added and incorporated radioactivity measured in a scintillation counter (TopCount, Packard Instruments, Pangbourne, Berks, UK). Compounds for kinase assay were made-up as 10 mM stocks in DMSO and diluted into 10% DMSO inrassay buffer.

In another assay the target is CDK2/cyclin A (Homo sapiens, UniProt P24941). Kind of assay: Kinase assay CDK2/cyclin A. The assay is classed as biochemical. The following applies: Table 2; read-out: Kinase Inhibition IC50 CDK2 cyclin A. As to the method:
as §1

A further assay has as its target CDK2/cyclin E (Homo sapiens, UniProt P24941). Kind of assay: Kinase assay CDK2/cyclin E. It is filed as biochemical. The following applies: Table 2; read-out: Kinase Inhibition IC50 CDK2 cyclin E. As to the method:
as §1

In another assay the target is CDK4/cyclin D1 (Homo sapiens, UniProt P11802). Kind of assay: Kinase assay CDK4/cyclin D1. The following applies: Table 2; read-out: Kinase Inhibition IC50 CDK4 cyclin D1. The assay is classed as biochemical. As to the method: as §1
The target of a further assay is CDK7/cyclin H (Homo sapiens, UniProt P50613). In words: CDK7 assay. The assay is classed as biochemical. As to conditions: Table 2; read-out: Kinase Inhibition IC50 CDK7 cyclin H. As to the method: as §1
(§2) CDK 7 and 9 assays. CTD peptide substrate (biotinyl-Ahx-(Tyr-Ser-Pro-Thr-Ser-Pro-Ser)4-NH2; 1-2 mg/mL) and recombinant human CDK7/cyclin H, CDK9/cyclin T1, or CDK9/cyclin K (0.5-2 μg) were incubated for 45 min at 30° C. in the presence of varying amounts of test compound in 20 mM MOPS pH 7.2, 25 mM β-glycerophosphate, 5 mM EGTA, 1 mM DTT, 1 mM sodium vanadate, 15 mM MgCl2, and 100 μM ATP (containing a trace amount of ^32PγATP) in a total volume of 25 μL in a 96-well microtiter plate. The reaction was stopped by placing the plate on ice for 2 min. Avidin (50 μg) was added to each well, and the plate was incubated at room temp for 30 min. The samples were transferred to a 96-well P81 filter plate, and washed (4×200 μL per well) with 75 mM phosphoric acid. Microscint 40 scintillation liquid (50 μL) was added to each well, and the amount of ^32P incorporation for each sample was measured using a Packard Topcount microplate scintillation counter.

A further assay has as its target CDK9/cyclin T1 (Homo sapiens, UniProt P50750). In words: CDK9 assay. The following applies: Table 2; read-out: Kinase Inhibition IC50 CDK9 cyclin T1. The assay is classed as biochemical. As to the method: as §1, §2
The next assay addresses GSK-3β (Homo sapiens, UniProt P49841). In words: Kinase assay GSK-3β. The assay is classed as biochemical. The following applies: Table 2; read-out: Kinase Inhibition IC50 GSK-3β. The procedure:
as §1

The next assay concerns A549. In words: 72-h MTT cytotoxicity assay A549. The assay is classed as cell-based. The following applies: Homo sapiens, A549, 72 h, Table 4. As to the method: (§3) MTT cytotoxicity assay. […] Standard 72-h MTT (thiazolyl blue; 3-[4,5-dimethylthiazol-2-yl]-2,5-diphenyltetrazolium bromide) assays were performed (Haselsberger, K.; Peterson, D. C.; Thomas, D. G.; Darling, J. L. Anti Cancer Drugs 1996, 7, 331-8; Loveland, B. E.; Johns, T. G.; Mackay, I. R.; Vaillant, F.; Wang, Z. X.; Hertzog, P. J. Biochemistry International 1992, 27, 501-10). In short: cells were seeded into 96-well plates according to doubling time and incubated overnight at 37° C. Test compounds were made up in DMSO and a 1/3 dilution series prepared in 100 μL cell media, added to cells (in triplicates) and incubated for 72 ho at 37° C. MTT was made up as a stock of 5 mg/mL in cell media and filter-sterilised. Media was removed from cells followed by a wash with 200 μL PBS.
(§4) MTT solution was then added at 20 μL per well and incubated in the dark at 37° C. for 4 h. MTT solution was removed and cells again washed with 200 μL PBS. MTT dye was solubilised with 200 μL per well of DMSO with agitation.

For the next assay, the system named is HT29. In words: 72-h MTT cytotoxicity assay HT29. The assay is classed as cell-based. As to conditions: Homo sapiens, HT-29, 72 h, Table 4. As to the method:
as §3, §4

A further assay has as its system Saos-2. Kind of assay: 72-h MTT cytotoxicity assay Saos-2. It is filed as cell-based. As to conditions: Homo sapiens, SAOS-2, 72 h, Table 4. As to the method: as §3, §4
For orientation: Formazan colour is commonly taken as a measure of viable cells.

CDK1/cyclin B, sequence (P06493 whole entry): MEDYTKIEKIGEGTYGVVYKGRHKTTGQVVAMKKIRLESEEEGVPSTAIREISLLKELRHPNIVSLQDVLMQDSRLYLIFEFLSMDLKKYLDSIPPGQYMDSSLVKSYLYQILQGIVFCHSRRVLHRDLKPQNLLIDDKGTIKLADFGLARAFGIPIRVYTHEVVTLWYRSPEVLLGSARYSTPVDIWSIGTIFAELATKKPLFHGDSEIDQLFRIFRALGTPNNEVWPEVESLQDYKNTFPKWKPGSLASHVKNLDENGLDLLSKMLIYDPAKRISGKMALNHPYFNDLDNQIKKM
CDK1/cyclin B, sequence (P14635 whole entry partner): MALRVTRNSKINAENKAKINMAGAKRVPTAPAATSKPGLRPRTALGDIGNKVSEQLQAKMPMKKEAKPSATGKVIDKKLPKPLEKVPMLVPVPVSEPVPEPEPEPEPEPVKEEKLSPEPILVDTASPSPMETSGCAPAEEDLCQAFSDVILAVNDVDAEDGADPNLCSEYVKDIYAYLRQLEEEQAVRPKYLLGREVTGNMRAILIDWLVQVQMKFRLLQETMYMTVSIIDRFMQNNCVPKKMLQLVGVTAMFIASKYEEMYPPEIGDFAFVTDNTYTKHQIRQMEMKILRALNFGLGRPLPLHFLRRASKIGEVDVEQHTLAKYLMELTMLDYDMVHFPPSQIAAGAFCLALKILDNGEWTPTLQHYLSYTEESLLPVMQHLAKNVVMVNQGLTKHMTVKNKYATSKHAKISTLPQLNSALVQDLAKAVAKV
CDK4/cyclin D1, sequence (P11802 whole entry): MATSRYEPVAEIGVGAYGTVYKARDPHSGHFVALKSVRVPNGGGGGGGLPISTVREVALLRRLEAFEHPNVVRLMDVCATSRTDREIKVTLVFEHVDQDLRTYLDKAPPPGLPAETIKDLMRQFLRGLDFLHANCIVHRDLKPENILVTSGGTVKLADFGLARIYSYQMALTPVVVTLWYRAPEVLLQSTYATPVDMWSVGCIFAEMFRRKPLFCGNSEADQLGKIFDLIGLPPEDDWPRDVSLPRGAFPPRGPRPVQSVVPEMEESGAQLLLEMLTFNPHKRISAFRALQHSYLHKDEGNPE
CDK4/cyclin D1, sequence (P24385 whole entry partner): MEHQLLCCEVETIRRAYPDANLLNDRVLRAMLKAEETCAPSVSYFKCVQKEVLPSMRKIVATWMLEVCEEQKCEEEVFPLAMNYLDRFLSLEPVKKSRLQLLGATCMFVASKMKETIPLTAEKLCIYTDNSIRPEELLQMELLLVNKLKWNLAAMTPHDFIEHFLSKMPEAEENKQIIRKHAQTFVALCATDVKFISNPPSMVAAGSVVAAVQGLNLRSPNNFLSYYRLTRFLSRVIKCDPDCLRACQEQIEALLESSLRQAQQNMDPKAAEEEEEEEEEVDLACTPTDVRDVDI
CDK9/cyclin T1, sequence (P50750 whole entry): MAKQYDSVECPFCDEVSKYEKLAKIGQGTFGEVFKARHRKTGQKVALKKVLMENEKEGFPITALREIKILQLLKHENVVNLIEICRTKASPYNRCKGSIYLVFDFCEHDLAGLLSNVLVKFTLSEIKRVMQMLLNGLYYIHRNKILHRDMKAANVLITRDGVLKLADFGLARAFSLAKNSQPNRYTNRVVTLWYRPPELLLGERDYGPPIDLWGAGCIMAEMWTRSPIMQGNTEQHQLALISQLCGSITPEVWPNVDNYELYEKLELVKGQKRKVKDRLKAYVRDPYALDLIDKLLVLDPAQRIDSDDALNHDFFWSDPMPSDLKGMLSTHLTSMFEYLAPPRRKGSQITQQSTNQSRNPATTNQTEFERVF
CDK9/cyclin T1, sequence (O60563 whole entry partner): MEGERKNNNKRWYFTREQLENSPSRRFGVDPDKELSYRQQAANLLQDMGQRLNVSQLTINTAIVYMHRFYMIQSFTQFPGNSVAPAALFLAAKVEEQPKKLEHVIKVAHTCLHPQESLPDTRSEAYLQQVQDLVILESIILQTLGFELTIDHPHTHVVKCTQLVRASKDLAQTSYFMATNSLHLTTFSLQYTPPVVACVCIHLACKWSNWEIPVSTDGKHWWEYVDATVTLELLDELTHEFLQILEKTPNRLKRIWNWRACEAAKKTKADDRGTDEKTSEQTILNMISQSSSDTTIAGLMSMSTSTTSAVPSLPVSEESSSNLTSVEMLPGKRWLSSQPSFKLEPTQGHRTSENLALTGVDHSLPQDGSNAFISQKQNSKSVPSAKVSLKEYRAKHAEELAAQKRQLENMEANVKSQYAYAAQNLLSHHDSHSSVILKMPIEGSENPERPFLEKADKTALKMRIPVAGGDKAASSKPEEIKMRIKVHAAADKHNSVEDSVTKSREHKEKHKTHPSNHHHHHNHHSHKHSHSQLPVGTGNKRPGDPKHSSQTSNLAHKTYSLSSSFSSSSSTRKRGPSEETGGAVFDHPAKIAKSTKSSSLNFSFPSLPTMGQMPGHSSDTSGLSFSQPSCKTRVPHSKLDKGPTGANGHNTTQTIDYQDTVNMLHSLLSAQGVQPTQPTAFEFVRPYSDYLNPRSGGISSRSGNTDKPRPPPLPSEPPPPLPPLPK
GSK-3β, sequence (P49841 whole entry): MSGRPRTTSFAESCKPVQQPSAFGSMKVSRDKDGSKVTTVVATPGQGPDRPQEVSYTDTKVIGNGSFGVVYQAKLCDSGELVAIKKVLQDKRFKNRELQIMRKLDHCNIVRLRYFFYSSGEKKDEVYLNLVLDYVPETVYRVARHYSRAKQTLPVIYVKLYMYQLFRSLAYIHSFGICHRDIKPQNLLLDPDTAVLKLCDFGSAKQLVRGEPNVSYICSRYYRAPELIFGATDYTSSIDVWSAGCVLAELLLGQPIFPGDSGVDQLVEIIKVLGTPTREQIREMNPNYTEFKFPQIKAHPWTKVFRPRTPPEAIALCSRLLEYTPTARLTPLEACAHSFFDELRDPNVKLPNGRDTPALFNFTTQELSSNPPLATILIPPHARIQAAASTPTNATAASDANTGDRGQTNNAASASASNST
CDK7/cyclin H, sequence (P50613 whole entry): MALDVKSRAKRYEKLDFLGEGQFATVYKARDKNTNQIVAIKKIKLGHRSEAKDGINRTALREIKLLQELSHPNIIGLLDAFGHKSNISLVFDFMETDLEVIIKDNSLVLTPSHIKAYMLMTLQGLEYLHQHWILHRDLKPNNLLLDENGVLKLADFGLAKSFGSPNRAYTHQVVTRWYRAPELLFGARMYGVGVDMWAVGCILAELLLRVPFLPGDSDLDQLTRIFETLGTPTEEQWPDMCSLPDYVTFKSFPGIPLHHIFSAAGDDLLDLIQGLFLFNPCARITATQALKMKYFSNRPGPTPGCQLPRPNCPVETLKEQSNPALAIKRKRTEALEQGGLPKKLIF

By IC50 is commonly meant the concentration needed to halve the response being measured. In the case of `CNc1nc(C)c(-c2ccnc(Nc3ccc(OCCOC)c([N+](=O)[O-])c3)n2)s1` [Compound 77, [4-(2-Methoxy-ethoxy)-3-nitro-phenyl]-[4-(4-methyl-2-methylamino-thiazol-5-yl)-pyrimidin-2-yl]-amine], the IC50 at CDK1/cyclin B amounted to 72000 nM; on CDK2/cyclin A, 1000 nM; at CDK2/cyclin E it was 150 nM; on CDK4/cyclin D1, 3400 nM; at CDK7/cyclin H it was 1000 nM; on CDK9/cyclin T1, 260 nM. Besides, the concentration for half-maximal inhibition (IC50) is 6100 nM on GSK-3β, 310 nM in the assay on A549, 210 nM with HT29 and 350 nM in the assay on Saos-2.

For the compound `Cc1nc(NC(=O)CNCCOCCO)sc1-c1ccnc(Nc2ccc(N(C)C)cc2)n1` [Compound 29, N-{5-[2-(4-Dimethylamino-phenylamino)-pyrimidin-4-yl]-4-methyl-thiazol-2-yl}-2-[2-(2-hydroxy-ethoxy)-ethylamino]-acetamide], the half-inhibitory concentration (IC50) at CDK1/cyclin B was found to be 860 nM; at CDK2/cyclin A it was 490 nM; at CDK2/cyclin E it was 470 nM; on CDK4/cyclin D1 it was 1100 nM; on CDK7/cyclin H it was 1200 nM; at GSK-3β, 560 nM. The IC50 in the assay on A549 was 690 nM; in the assay on HT29, 2600 nM; in the assay on Saos-2, 720 nM.

`Cc1nc(C)c(-c2ccnc(Nc3ccc(Cl)c(CO)c3)n2)s1` [Compound 72, {2-Chloro-5-[4-(2,4-dimethyl-thiazol-5-yl)-pyrimidin-2-ylamino]-phenyl}-methanol]: the 50% inhibitory concentration (IC50) on CDK1/cyclin B was 62000 nM; at CDK2/cyclin A, 12000 nM; at CDK2/cyclin E, 730 nM; on CDK4/cyclin D1, 25000 nM; on CDK7/cyclin H, 9600 nM; at CDK9/cyclin T1, 4100 nM. Further, the IC50 at GSK-3β turned out to be 48000 nM; with A549, 32000 nM; in the assay on HT29 it was 20000 nM; in the assay on Saos-2 it was 18000 nM.

With `Cc1c(-c2ccnc(Nc3ccc(N4CCN(C)CC4)cc3)n2)sc(=O)n1C` [Compound 93, 3,4-Dimethyl-5-{2-[4-(4-methyl-piperazin-1-yl)-phenylamino]-pyrimidin-4-yl}-3H-thiazol-2-one], the IC50 was found to be 4400 nM at CDK1/cyclin B; 1100 nM on CDK2/cyclin A; 840 nM on CDK2/cyclin E; 510 nM on CDK4/cyclin D1; 360 nM at CDK7/cyclin H; 300 nM at CDK9/cyclin T1. For the same compound, the IC50 at GSK-3β amounted to 430 nM.

On to `CNc1nc(C)c(-c2ccnc(Nc3ccc(N4CCN(C(C)=O)CC4)cc3)n2)s1` [Compound 61, 1-(4-{4-[4-(4-Methyl-2-methylamino-thiazol-5-yl)-pyrimidin-2-ylamino]-phenyl}-piperazin-1-yl)-ethanone], for which the IC50 at CDK1/cyclin B stood at 2500 nM; on CDK4/cyclin D1 it was 42 nM; on CDK7/cyclin H, 2300 nM; at CDK9/cyclin T1 it was 1500 nM; on GSK-3β, 6800 nM; in the assay with A549, 720 nM. For the same compound, the IC50 was determined as 530 nM in the assay on HT29 and 1000 nM in the assay on Saos-2.

Take `CNc1nc(C)c(-c2ccnc(Nc3cccc(CNS(C)(=O)=O)c3)n2)s1` [Compound 83, N-{3-[4-(4-Methyl-2-methylamino-thiazol-5-yl)-pyrimidin-2-ylamino]-benzyl}-methanesulfonamide]: the IC50 on CDK1/cyclin B worked out at 480 nM; on CDK2/cyclin A, 150 nM; on CDK2/cyclin E, 25 nM; at CDK4/cyclin D1 it was 670 nM; on CDK7/cyclin H, 370 nM; on GSK-3β, 1000 nM.

Regarding `Cc1nc(NS(C)(=O)=O)sc1-c1ccnc(Nc2cccc([N+](=O)[O-])c2)n1` [Compound 32, N-{4-Methyl-5-[2-(3-nitro-phenylamino)-pyrimidin-4-yl]-thiazol-2-yl}-methanesulfonamide], the IC50 on CDK2/cyclin E is 5 nM; at CDK4/cyclin D1 it was 1100 nM; at CDK9/cyclin T1, 1.4 nM; on GSK-3β, 210 nM; in the assay on A549, 100 nM; with HT29, 170 nM. The same compound came in with an IC50 in the assay on Saos-2 of 160 nM.

Take `Cc1nc(N2CCOCC2)sc1-c1ccnc(Nc2cccc([N+](=O)[O-])c2)n1` [Compound 71, [4-(4-Methyl-2-morpholin-4-yl-thiazol-5-yl)-pyrimidin-2-yl]-(3-nitro-phenyl)-amine]: the IC50 on CDK1/cyclin B stood at 330 nM; on CDK2/cyclin A it was 6 nM; on CDK2/cyclin E it was 220 nM; on CDK7/cyclin H, 2400 nM; on CDK9/cyclin T1 it was 4200 nM; at GSK-3β it was 2400 nM. For the same compound, the IC50 with A549 was determined as 80000 nM; in the assay on HT29, 71000 nM; in the assay on Saos-2, 10000 nM.

In the case of `CCNc1nc(C)c(-c2ccnc(Nc3cccc(CO)c3)n2)s1` [Compound 68, {3-[4-(2-Ethylamino-4-methyl-thiazol-5-yl)-pyrimidin-2-ylamino]-phenyl}-methanol], the IC50 at CDK1/cyclin B came out at 150 nM; at CDK2/cyclin A, 61 nM; on CDK2/cyclin E, 65 nM; at CDK4/cyclin D1 it was 42 nM; on CDK7/cyclin H it was 480 nM; on GSK-3β it was 820 nM.

As for `Cc1nc(N)sc1-c1ccnc(Nc2ccc(S(C)(=O)=O)cc2)n1` [Compound 76, [4-(2-Amino-4-methyl-thiazol-5-yl)-pyrimidin-2-yl]-(4-methanesulfonyl-phenyl)-amine], the concentration for half-maximal inhibition (IC50) amounted to 1800 nM at CDK1/cyclin B; 140 nM on CDK2/cyclin A; 150 nM at CDK2/cyclin E; 3200 nM at CDK4/cyclin D1; 11000 nM at CDK7/cyclin H; 5400 nM at GSK-3β. Moreover, the IC50 is 5800 nM in the assay with A549, 1800 nM in the assay with HT29 and 1300 nM in the assay on Saos-2.

On to `Cc1c(-c2ccnc(Nc3ccc(N4CCOCC4)cc3)n2)sc(=O)n1C` [Compound 92, 3,4-Dimethyl-5-[2-(4-morpholin-4-yl-phenylamino)-pyrimidin-4-yl]-3H-thiazol-2-one], for which the IC50 on CDK1/cyclin B turned out to be 15000 nM; on CDK2/cyclin A, 1200 nM; on CDK2/cyclin E, 640 nM; at CDK4/cyclin D1, 1300 nM; at CDK7/cyclin H, 2800 nM; at GSK-3β, 470 nM.

For the compound `CNc1nc(C)c(-c2ccnc(Nc3cccc(CNS(=O)(=O)C(F)(F)F)c3)n2)s1` [Compound 82, C,C,C-Trifluoro-N-{3-[4-(4-methyl-2-methylamino-thiazol-5-yl)-pyrimidin-2-ylamino]-benzyl}-methanesulfonamide], the IC50 on CDK1/cyclin B turned out to be 2700 nM; at CDK2/cyclin A it was 1300 nM; on CDK2/cyclin E it was 14 nM; on CDK4/cyclin D1, 2300 nM; on CDK7/cyclin H, 4000 nM; on GSK-3β it was 1200 nM.
